Data published in patent US20170246176A1, “PHACOSCLEROSIS INHIBITOR” (KEIO UNIVERSITY, priority 2014, published 2017).

Assays:
[1] = test system: cornea state of the rat exposed to mainstream smoke; test: Fluorescent staining of cornea after smoking treatment by exposure to mainstream smoke; assay type: in vivo, Sprague-Dawley (SD) rats; details: male SD rats, smoking treatment 12 days, instillation 5 μL per eye, once before and 3 times after smoking treatment, 0.1% tiopronin or 0.005% pirenoxine (Catalin)
Protocol: (§1) Male 6-8-week-old Sprague-Dawley (SD) rats were divided into 4 groups, each group with 4 rats, and they were used as a nonsmoking treatment group (NT), a smoking treatment group (Smoking), a smoking treatment+0.1% tiopronin instillation group (S+0.1% Tiopronin), and a smoking treatment +0.005% pirenoxine instillation group (S+Catalin).
(§2) Tiopronin (Thiola Tab. 100, manufactured by Mylan EPD) was prepared to provide an active ingredient amount of 0.1 w/v %, whereby an ophthalmic solution was produced. Catalin For Ophthalmic 0.005% (manufactured by Senju Pharmaceutical Co., Ltd.) was used for the 0.005% pirenoxine instillation group. Each eye was instilled with 5 μL per instillation. Instillation was performed for 12 days, once before the following smoking treatment and 3 times after the treatment.
The smoking treatment was performed as follows by reference to the method of Higuchi et al. (Free Radic. Biol. Med., 2011, Vol. 51, pages 2210-2216). Rats were placed in a smoking chamber and 300 mL of mainstream smoke was added into the chamber with a syringe. Male 6-8-week-old SD rats (maximum 12 rats) were placed in a smoking chamber (60 cm×40 cm×35 cm) produced for the experiment, and fresh air was supplied into the chamber with an air pump. Tobacco (Seven Star. (registered trade mark)) was set on a 50 mL syringe, and the mainstream smoke was sucked and blown into the chamber. This suction operation was repeated 6 times, a total 300 mL of the mainstream smoke was added into the chamber, and the rats were left standing for 30 min while delivering fresh air by the pump. A similar operation was repeated 5 times more (total 6 times), thereby exposing the rats to the mainstream smoke for 3 hr in total per day. […] The body weight of the rats that underwent the smoking treatment for 12 days and the nonsmoking group was measured, and cornea, lacrimal gland, crystalline lens were harvested. […] Of the rats that underwent the smoking treatment, the instillation group (S+Tiopronin, S+Catalin) and the noninstillation group (Smoking) were compared for the fluorescence score.

[2] = test system: hardening of crystalline lens due to exposure to mainstream smoke in rat; test: Measurement of crystalline lens hardness after smoking treatment; assay type: in vivo, Sprague-Dawley (SD) rats; details: male SD rats, smoking treatment 12 days; instillation 5 μL per eye, once before and 3 times after smoking treatment; 0.1% tiopronin or 0.005% pirenoxine (Catalin); Dunnett method, p<0.01
Protocol: as §1
as §2, with “Instillation was performed for 12 days, once before the following smoking treatment and 3 times after the treatment.” left out
The smoking treatment was performed as follows by reference to the method of Higuchi et al. (Free Radic. Biol. Med., 2011, Vol. 51, pages 2210-2216). […] The body weight of the rats that underwent the smoking treatment for 12 days and the nonsmoking group was measured, and cornea, lacrimal gland, crystalline lens were harvested. […] Of the rats that underwent the smoking treatment, the instillation group (S+Tiopronin, S+Catalin) and the noninstillation group (Smoking) were compared for the fluorescence score.
The crystalline lens isolated from the eyeball in Example 1 was measured for the crystalline lens hardness by the following method. […]

| SMILES | fluorescent staining score of cornea (corneal state), instillation group vs noninstillation smoking group [1] | fluorescent staining score of cornea (corneal state), instillation group vs noninstillation smoking group ([1]; listed as Catalin) | hardness of the crystalline lens (weight divided by distance), vs smoking treatment group [2] |
| --- | --- | --- | --- |
| O=C(O)c1cc(O)c2c3nc4ccccc4oc-3cc(=O)c2n1 [pirenoxine, 1-hydroxy-5-oxo-5H-pyrido[3,2-α]phenoxazine-3-carboxylic acid] | showed a tendency toward improvement | exacerbation of the corneal state due to instillation was not found | an increase in the hardness was significantly suppressed |
| CC(S)C(=O)NCC(=O)O (centres unmarked) [tiopronin, N-(2-mercaptopropionyl)glycine] | exacerbation of the corneal state due to instillation was not found | – | an increase in the hardness was significantly suppressed |
